How the values were obtained:
Type in all cases: in vivo
Malus (apple) rootstocks = experiment: Example 4: bud break and shoot growth of Malus (apple) rootstocks; settings: for Fresh Weight at Harvest: combined new shoot growth; for Fresh Weight at Harvest / Average Number of Broken Buds Per Malus Plant at Harvest / Fresh Weight per Bud at Harvest / Average Number of Broken Nodes Per Centimeter of Shoot at Harvest: harvest at 28 days; for Average Number of Broken Nodes Per Centimeter of Shoot at Harvest: rootstocks pruned to 25 centimeters
Procedure: (§1) To determine if the mixtures provided unexpected results, the observed combined efficacy (“OCE”) was divided by the expected combined efficacy (“ECE”) wherein the expected ECE is calculated by the Abbott method: ECE=A+B−(AB/100), • wherein ECE is the expected combined efficacy and in which A and B are the speed of bud break relative to control, the number of buds broken per plant relative to control, shoot length relative to control or shoot weight relative to control given by the single active ingredients. If the ratio between the OCE of the mixture and the ECE of the mixture is greater than 1, then greater than expected interactions are present in the mixture. (Gisi, Synergistic Interaction of Fungicides in Mixtures, The American Phytopathological Society, 86:11, 1273-1279,1996). Results
(§2) To assess the ability of mixtures of the invention to promote and synchronize bud break, these mixtures were applied to field-grown Malus (apple) rootstocks and examined for bud break (initiation of growth) and subsequent shoot development. Forchlorfenuron, Dormex (50% HC), 15-0-0 (Erger®) and 17-0-0 fertilizers (CAN17), and mixtures thereof were each applied individually or sequentially (co-applied) to the shoots of potted Malus rootstocks that were pruned to a height of 25 centimeters. Plants were evaluated for bud break at 28 days after treatment.

Concord grape vines = experiment: Example 2: Concord grape vines greenhouse, forchlorfenuron and 15-0-0 fertilizer (Erger) study; settings: for Fresh Weight at Harvest: combined shoot fresh weight, 52 days after planting; for 50% BB: days after treatment to 50% bud break; for Average Number of Broken Nodes Per Plant at Harvest: harvest 52 days after planting
Text: To assess the ability of mixtures of the invention to promote and synchronize bud break these mixtures were applied to Concord grape vines and examined for bud break (initiation of growth) and subsequent shoot development. Specifically, dormant bare-rooted Concord grape vines were planted in pots containing Pro-Mix® BX potting soil (Pro-Mix is a registered trademark of and available from Premier Horticulture Ltd.) and pruned to five nodes on a single shoot of one-year-old wood. Nodes are regions on the shoot where leaves arise from the shoot and buds are present at the axis of the shoot:leaf interface. The bud found at the shoot:leaf interface develops into the vines new shoot growth. Aqueous solutions of forchlorfenuron, HC, 15-0-0 fertilizer, 17-0-0 fertilizer, and mixtures thereof were each applied individually or sequentially or co-applied to the first-year wood of separate Concord grape vines. […] Percent bud break is determined by the number of plants that have at least one bud broken divided by the total number of plants per treatment times 100. […] New shoot growth is the growth arising from the dormant buds not including the woody growth that was planted and gave rise to the new growth.
as §1
The experiment from Example 1 was repeated with varying quantities of forchlorfenuron and fertilizers in a greenhouse experiment.

[1] = system: Prunus (stone fruit) plants; experiment: Example 5: bud break and shoot growth of Prunus (stone fruit) plants in greenhouse; settings: for Fresh Weight at Harvest, FW: combined new shoot fresh weight, harvest at 28 days; for 50% BB: days after treatment to 50% bud break
Procedure: as §1
as §2, with “Prunus (stone fruit) plants in the greenhouse” for “field-grown Malus (apple) rootstocks”, “Prunus plants.” for “potted Malus rootstocks that were pruned to a height of 25 centimeters.”

In the case of O=C(Nc1ccccc1)Nc1ccnc(Cl)c1 [CPPU, N-(2-Chloro-4-pyridyl)-N′-phenylurea], the “Fresh Weight at Harvest” value (Malus (apple) rootstocks; listed as CPPU 300 ppm) is reported as 6.98 grams, the “Fresh Weight at Harvest” value (Malus (apple) rootstocks; listed as CPPU 600 ppm) is reported as 5.65 grams and the “50% BB” value (Malus (apple) rootstocks; days after treatment to 50% bud break) is reported as 12 days. The “Average Number of Broken Buds Per Malus Plant at Harvest” value (Malus (apple) rootstocks; listed as CPPU 300 ppm) was 7.00, the “Fresh Weight per Bud at Harvest” value (Malus (apple) rootstocks; listed as CPPU 300 ppm) was 0.88 grams and the “Average Number of Broken Buds Per Malus Plant at Harvest” value (Malus (apple) rootstocks; listed as CPPU 600 ppm) was 8.25. For the same molecule, the “Fresh Weight per Bud at Harvest” value (Malus (apple) rootstocks; listed as CPPU 600 ppm) was 0.71 grams, the “Average Number of Broken Nodes Per Centimeter of Shoot at Harvest” value (Malus (apple) rootstocks; listed as CPPU 300 ppm) was 0.28 and the “Average Number of Broken Nodes Per Centimeter of Shoot at Harvest” value (Malus (apple) rootstocks; listed as CPPU 600 ppm) was 0.33. The “50% BB OCE” value (Malus (apple) rootstocks; observed efficacy, relative to control) was 2, the “Fresh Weight at Harvest” value (Concord grape vines; listed as CPPU 300 ppm) was 18.04 grams and the “Fresh Weight at Harvest” value (Concord grape vines; listed as CPPU 600 ppm) was 18.54 grams. For the same molecule, the “Fresh Weight at Harvest” value (Concord grape vines; listed as CPPU 1000 ppm) was 29.13 grams, the “50% BB” value (Concord grape vines; listed as CPPU 300 ppm) was 26 days and the “50% BB” value (Concord grape vines; listed as CPPU 600 ppm) was 31 days. For the same molecule, the “50% BB” value (Concord grape vines; listed as CPPU 1000 ppm) was 24 days, the “Average Number of Broken Nodes Per Plant at Harvest” value (Concord grape vines; listed as CPPU 300 ppm) was 1.25 and the “Average Number of Broken Nodes Per Plant at Harvest” value (Concord grape vines; listed as CPPU 600 ppm) was 1.88. The “Average Number of Broken Nodes Per Plant at Harvest” value (Concord grape vines; listed as CPPU 1000 ppm) was 2.63, the “Fresh Weight at Harvest, FW” value ([1]; listed as CPPU 300 ppm) was 1.34 grams and the “Fresh Weight at Harvest, FW” value ([1]; listed as CPPU 600 ppm) was 4.91 grams. For the same molecule, the “50% BB” value ([1]; listed as CPPU 300 ppm) was 14 days and the “50% BB” value ([1]; listed as CPPU 600 ppm) was 10 days.

Reference: patent US11317626B2, “Forchlorfenuron mixtures and uses thereof” (Valent BioSciences LLC, priority 2018, dated 2022)
